Measurements published in patent publication EP0167935A2, “Anthracycline derivatives, a process for the production thereof, a pharmaceutical composition containing the same and their use as medicaments” (priority 1984, dated 1986).
≈ marks a conversion by molar mass, not a printed value. Like-named read-outs stand apart in the source and are kept apart here.

Legend:
leukemic cells P 388 = assay: Inhibition of the growth of cultured leukemic cells P 388 (two-day culture); type: cell-based; conditions: Mus musculus, P388, 48 h
From the text: (1) Activity of inhibiting the growth of cultures leukemic cells P 3FB8

Leukemia L 1210 = assay: Anti-tumor effect for mice bearing Leukemia L 1210 (survival); type: in vivo, CDF1 mice; conditions: injected peritoneally for 10 days; for Percent survival (%): L 1210 1 x 10^5 cells/mouse i.p., 30 days observation, saline control = 100; for Toxicity remark in the percent survival cell: CDF1 mice bearing L 1210
Description: (2) Anti-tumor effect for mice bearing Leukemia L 1210
A group of CDF1 mice were intraperitoneally transplanted with suspensions of leukemic cells L 1210 (1 x 10^5 cells/mouse). Immediately after the transplantation, a.25 mℓ each of the test compounds was injected peritoneally into the mice for 10 days. Observation was made for 30 days, and the percent survival for each test compound was determined, with 100 representing the number of days which the control mice group administered physiological saline survived.

[1] = concentration giving 50% inhibition of growth of a two-day culture of P 388 cells vs untreated group, read-out: IC50

SMILES | IC50 (leukemic cells P 388) | Percent survival (%) (Leukemia L 1210; Dose 0.0078 mg/kg/day) | Percent survival (%) (Leukemia L 1210; Dose 0.0156 mg/kg/day) | Percent survival (%) (Leukemia L 1210; Dose 0.0313 mg/kg/day) | Percent survival (%) (Leukemia L 1210; Dose 0.0625 mg/kg/day) | Percent survival (%) (Leukemia L 1210; Dose 0.125 mg/kg/day) | Percent survival (%) (Leukemia L 1210; Dose 0.25 mg/kg/day) | other results
CCC1(O)CC(OC2CC(N(C)C)C(OC3CC4OC5CC(=O)C(C)OC5OC4C(C)O3)C(C)O2)c2c(O)c3c(c(O)c2C1OC1CC(N(C)C)C(OC2CC(O)C(OC4CCC(O)C(C)O4)C(C)O2)C(C)O1)C(=O)c1cccc(O)c1C3=O (centres unmarked) [DTR-G, ditrisarubicin G] | 4.5 ng/mL (≈ 3.8 nM) | 109% | 111% | 117% | 163% | 138% | 125% | Toxicity remark in the percent survival cell (Leukemia L 1210; Dose 0.25 mg/kg/day): Toxin
CCC1(O)CC(OC2CC(N(C)C)C(OC3CC4OC5CC(=O)C(C)OC5OC4C(C)O3)C(C)O2)c2c(O)c3c(c(O)c2C1OC1CC(N(C)C)C(O)C(C)O1)C(=O)c1cccc(O)c1C3=O (centres unmarked) [DTR-B/10de-dF-CB] |  |  |  |  |  |  |  | IC50 (leukemic cells P 388; [1]): 9 ng/mL (≈ 9.56 nM)
CCC1(O)CC(OC2CC(N(C)C)C(OC3CC(O)C(OC4CCC(O)C(C)O4)C(C)O3)C(C)O2)c2c(O)c3c(c(O)c2C1OC1CC(N(C)C)C(OC2CC4OC5CC(=O)C(C)OC5OC4C(C)O2)C(C)O1)C(=O)c1cccc(O)c1C3=O (centres unmarked) [DTR-GR, ditrisarubicin GR] | 4.2 ng/mL (≈ 3.54 nM) |  |  |  |  |  |  | 
CCC1(O)CC(OC2CC(N(C)C)C(O)C(C)O2)c2c(O)c3c(c(O)c2C1OC1CC(N(C)C)C(OC2CC4OC5CC(=O)C(C)OC5OC4C(C)O2)C(C)O1)C(=O)c1cccc(O)c1C3=O (centres unmarked) [DTR-B/7de-dF-CB, ditrisarubicin B/7 de-dF-CB] | 21 ng/mL (≈ 22.3 nM) |  |  |  |  |  |  | 
CCC1(O)CC(OC2CC(N(C)C)C(OC3CC(O)C(OC4CCC(=O)C(C)O4)C(C)O3)C(C)O2)c2c(O)c3c(c(O)c2C1OC1CC(N(C)C)C(OC2CC(O)C(OC4CCC(=O)C(C)O4)C(C)O2)C(C)O1)C(=O)c1cccc(O)c1C3=O (centres unmarked) [DTR-E, ditrisarubicin E] |  | 102% | 102% | 119% | 163% | 156% | 106% | IC50 (leukemic cells P 388; [1]): 7 ng/mL (≈ 5.91 nM)
CCC1(O)CC(OC2CC(N(C)C)C(OC3CC4OC5CC(=O)C(C)OC5OC4C(C)O3)C(C)O2)c2c(O)c3c(c(O)c2C1OC1CC(N(C)C)C(OC2CCC(OC4CCC(=O)C(C)O4)C(C)O2)C(C)O1)C(=O)c1cccc(O)c1C3=O (centres unmarked) [DTR-D, ditrisarubicin D] | 4 ng/mL (≈ 3.43 nM) | 97% | 102% | 125% | 142% | 114% | 131% | 
CCC1(O)CC(OC2CC(N(C)C)C(OC3CC4OC5CC(=O)C(C)OC5OC4C(C)O3)C(C)O2)c2c(O)c3c(c(O)c2C1OC1CC(N(C)C)C(OC2CCC(OC4CCC(O)C(C)O4)C(C)O2)C(C)O1)C(=O)c1cccc(O)c1C3=O (centres unmarked) [DTR-F, ditrisarubicin F] | 3.8 ng/mL (≈ 3.25 nM) | 101% | 120% | 127% | 133% | 152% | 133% | Toxicity remark in the percent survival cell (Leukemia L 1210; Dose 0.25 mg/kg/day): Toxin
CCC1(O)CC(OC2CC(N(C)C)C(OC3CC4OC5CC(=O)C(C)OC5OC4C(C)O3)C(C)O2)c2c(O)c3c(c(O)c2C1OC1CC(N(C)C)C(OC2CC(O)C(O)C(C)O2)C(C)O1)C(=O)c1cccc(O)c1C3=O (centres unmarked) [DTR-G/de-Ro] | 12 ng/mL (≈ 11.2 nM) |  |  |  |  |  |  | 
CCC1(O)CC(OC2CC(N(C)C)C(OC3CC4OC5CC(=O)C(C)OC5OC4C(C)O3)C(C)O2)c2cc3c(c(O)c2C1OC1CC(N(C)C)C(OC2CC4OC5CC(=O)C(C)OC5OC4C(C)O2)C(C)O1)C(=O)c1c(O)ccc(O)c1C3=O (centres unmarked) [Compound 1-HSR, 1-hydroxyserirubicin] | 12 ng/mL (≈ 10.2 nM) |  |  | 108% | 127% | 151% | 145% | Percent survival (%) (Leukemia L 1210; Dose 0.5 mg/kg/day): 139%; Toxicity remark in the percent survival cell (Leukemia L 1210; Dose 1 mg/kg/day): Toxin; Percent survival (%) (Leukemia L 1210; Dose 1 mg/kg/day): 114%
CCC1(O)CC(OC2CC(N(C)C)C(OC3CC(O)C(O)C(C)O3)C(C)O2)c2c(O)c3c(c(O)c2C1OC1CC(N(C)C)C(OC2CC4OC5CC(=O)C(C)OC5OC4C(C)O2)C(C)O1)C(=O)c1cccc(O)c1C3=O (centres unmarked) [DTR-GR/de-Ro] | 20 ng/mL (≈ 18.7 nM) |  |  |  |  |  |  | 
CCC1(O)CC(OC2CC(N(C)C)C(OC3CCC(OC4C=CC(=O)C(C)O4)C(C)O3)C(C)O2)c2c(O)c3c(c(O)c2C1OC1CC(N(C)C)C(OC2CC4OC5CC(=O)C(C)OC5OC4C(C)O2)C(C)O1)C(=O)c1cccc(O)c1C3=O (centres unmarked) [DTR-CR, ditrisarubicin CR] | 4 ng/mL (≈ 3.43 nM) |  |  |  |  |  |  | 
